# Measurements taken from patent publication US12358918B2, “Aryl hydrocarbon receptor (AHR) activator compounds as cancer therapeutics” (THE BROAD INSTITUTE, INC., priority 2018, dated 2025).
# Read-outs that look alike come from different tables or passages of the source.
# Experiments:
# 578 cancer cell lines = assay: PRISM multiplexed cellular viability screening; type: cell-based; details: relation to FOXA1 / FOXA1 target expression across cell lines
# Method: The instant discovery was made using large-scale multiplex profiling of existing drugs against 578 cancer cell lines, employing a PRISM multiplexed cellular viability assay.
# Parental cell lines were obtained from the Cancer Cell Line Encyclopedia (CCLE) project (1). PRISM cell line barcoding, pooling, and screening was performed as previously described with several improvements to the original method (2). First, the lentiviral vector was modified to encode the unique barcode identifier at the end of the puromycin resistance gene. This enables barcodes to be detected using a variant of the mRNA capture and Luminex detection method developed for the L1000 gene expression assay (3). Second, a set of ten inert barcodes were spiked-in to each well of each plate after cell lysis to control for variation in PCR amplification as detailed below.
# Luminex technology produced .Ixb files containing data for each Luminex bead observed during detection. These .Ixb files were processed to compute Median Fluorescence Intensity (MFI) values, calculated as the median of the values obtained for all beads corresponding to a single PRISM barcode.
# MFI values were log-transformed (log MFI) and used to perform basic quality control. To detect probable screening artifacts, log MFI values were centered to the median log MFI for each cell line on each plate in order to put the measurements from each cell line on the same scale. For each well on each plate, the median of these centered values was then standardized according to the global median and global MAD across all plate wells in the same position. Data from wells with a standardized score of greater than 5 or less than −5 were excluded from all further processing steps.
# For each cell line on each plate, the distribution of MFI values observed for the DMSO-treated negative controls was compared to that of the positive controls using a robust form of the Strictly Standardized Mean Difference (SSMD*)′. Specifically, SSMD* was calculated as: […]
# Data corresponding to SSMD values less than 2 were removed before calculating cell viability.
# The data in the instant disclosure were produced according to two different screening protocols. In the PR500 protocol, ten inert barcodes were spiked-in to each well of each plate after cell lysis. For data produced using the PR500 protocol, normalized MFI (nMFI) values were computed by taking the ratio of each MFI value against the median of the inert barcodes within each well. […]
# Cell viability was calculated as the ratio of nMFI to the median of the nMFI from the DMSO-treated negative controls for each cell line on each plate. […] The final viability values were calculated as the median of the batch-corrected cell viabilities from biological replicates for each cell line, compound and dose. […]
# [1] = test system: MDA-MB-468 breast cancer cells; assay: Western immunoblot of treated cells over 24 hours; type: cell-based; details: FIG. 18
# Method: Adherent cells were washed once with cold 1×PBS (Corning #01018002) and lysed with RIPA buffer (Sigma #R0278) supplemented by protease and phosphatase inhibitors (Sigma). Protein content was quantified using the DC Protein Assay (BioRad #5000111). Samples were reduced with (loading buffer) and boiled at 95° C. before being resolved by SDS gel electrophoresis on 4-20% Tris/glycine gels (Invitrogen). Proteins were transferred using the IBlot2 (Thermo #IB21001) onto the iBlot™ 2 nitrocellulose Transfer Stacks (Thermo #IB23001). The membranes were then blocked in Odyssey Blocking Buffer (Li-COR #927-40000) for one hour, and then probed overnight with primary antibodies diluted in blocking buffer. The following day, membranes were washed 3×5 mins with 1×TBST and then probed with LiCOR Infrared secondary antibodies for 1 hour at room temperature. Membranes were washed an additional 3×5 mins in 1×TBST and then imaged using the LiCOR Imager. […]
# [2] = test system: MDA-MB-468 breast cancer cells possessing AHR knockout; assay: dose response in AHR knockout (AHR_sg3) cells; type: cell-based; details: FIG. 17
# Source text: (§1) Biological replicates were averaged and normalized to vehicle control. Dose curves were generated using Graphpad Prism.
# [3] = test system: ZR75, MDA-MB-468 and HCC1395 cell lines; assay: cytotoxicity of CGS-15943 analogs in sensitive and resistant cell lines; type: cell-based; details: IC50 tables of FIGS. 8A to 8D
# Source text: as §1
# [4] = test system: ZR-75-1 breast cancer cells; assay: Synergy/antagonism testing; type: cell-based; details: co-treatment with CGS-15943, 120H; FIG. 14
# Method: 1000 cells per well were seeded in 384 well clear bottom tissue culture plates and incubated overnight at 37° C. and 4% CO2. The following day, compounds were dispensed in a combination grid format using the Tecan Digital Dispenser. Plates were incubated for 5 days and then viability was assayed using CellTiter-Glo® Cellular Viability Assay. Analysis and Synergy plots were generated using the publicly available Combenefit software package.
# AHR has been previously described to bind a range of endogenous and exogenous aromatic ligands (Denison et al. Tox. Sci. 2004, see Table 2), resulting in the formation of a nuclear heterodimer with ARNT. The dimer then binds dioxin-responsive elements and drives gene expression, after nuclear translocation. AHR has been described to bind a wide range of aromatic substrates including agonists, antagonists, and modulators.
# [5] = test system: MDA-MB-231 breast cancer cell lines; assay: cytotoxicity, control cells vs cells overexpressing CYP1A1; type: cell-based
# Source text: The dependence of each compound's cytotoxic effects upon CYP1A1 was also examined, via screening of MDA-MB-231 breast cancer cell lines for cytotoxic response. The CYP1A1-dependence of the cytotoxic response of to each tested compound was specifically determined by comparing the cytotoxicity of each compound administered to control cells with that of the compound administered to corresponding cells that overexpressed CYP1A1. […]
# [6] = test system: MDA-MB-468 and ZR51 breast cancer and JHH7 liver cancer cell lines; assay: 5 day cytotoxicity, control cells vs sgRNA knock out of AHR; details: cytotoxicity in control cells compared with AHR sgRNA knock out cells; FIGS. 23 and 24
# [7] = test system: Twelve different breast cancer cell lines; assay: adenosine receptor antagonists and agonists dosed on twelve breast cancer cell lines; type: cell-based; details: 32 adenosine receptor antagonists/agonists compared; FIG. 6B
# [8] = test system: MDA-MB-468 and ZR51 breast cancer and JHH7 liver cancer cell lines
# A3 receptors = target: T1, A3 receptors (Homo sapiens, UniProt P0DMS8); details: previously characterized; cited from earlier work
# T1 sequence (P0DMS8 1-318): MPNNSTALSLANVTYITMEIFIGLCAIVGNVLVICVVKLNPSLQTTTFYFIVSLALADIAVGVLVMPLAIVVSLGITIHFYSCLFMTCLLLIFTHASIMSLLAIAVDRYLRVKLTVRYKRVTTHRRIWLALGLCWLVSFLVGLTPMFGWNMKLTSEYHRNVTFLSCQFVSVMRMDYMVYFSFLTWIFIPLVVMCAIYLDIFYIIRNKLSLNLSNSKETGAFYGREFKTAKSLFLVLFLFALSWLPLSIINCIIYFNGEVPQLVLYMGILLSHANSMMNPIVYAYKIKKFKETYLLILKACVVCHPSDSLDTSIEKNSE
compound,measurement,setting,value
Cc1cc(-c2nc3cc(F)ccc3s2)ccc1NC(=O)[C@@H](N)CCCCN.Cl.Cl [Phortress],cell killing profile in PRISM,578 cancer cell lines,more broadly cytotoxic
same,CYP1A1 expression,[1]; 24 hour time course,induced CYP1A1 expression
same,FOXA1 levels,[1]; 24 hour time course,maintenance of FOXA1 levels
same,DNA double stranded breaks (pH2A.X) and PARP cleavage,[1]; within 24 hours,induced DNA double stranded breaks
same,rescue of killing by AHR knockout,[2]; 10 μM,AHR knockout did not rescue cells from Phortress killing
same,cytotoxicity at high doses,[2]; AHR knockout cells,non-specific cytotoxicity at high doses
Nc1nc2c(cnn2CCc2ccccc2)c2nc(-c3ccco3)nn12 [BRD-K81225797-001-02-3],"killing of sensitive (ZR75, MDA-MB-468) versus resistant (HCC1395) cell lines",[3],selective killing
COc1ccc(-c2cc(=O)c3cc(OC)ccc3o2)c(OC)c1,interaction with CGS-15943 (3D Synergy plot),[4],pronounced antagonism to CGS-15943
"Cc1ccc2cc3c(ccc4ccccc43)c3c2c1CC3 [3-Methylcholanthrene, reference compound]",CYP1A1-dependence of the cytotoxic response,[5]; control MDA-MB-231 compared with cells overexpressing CYP1A1,CYP1A1-dependent cytotoxic
same,AHR-dependence of the cytotoxic response,[6],dependence upon AHR
Nc1nc2c(cnn2CCc2ccccc2)c2nc(-c3ccco3)nn12 [SCH-58261],CYP1A1-dependence of the cytotoxic response,[5],CYP1A1-dependent cytotoxic
same,cytotoxicity to breast cancer cell lines,[7],cytotoxic
same,cell killing profile in PRISM,578 cancer cell lines,cell killing profile specific for such FOXA1-dependent cancer cell lines
same,AHR-dependence of the cytotoxic response,[8],dependence upon AHR
same,Ki,A3 receptors,> 10 µM
